Measured values as given in article PMC11643962, “Exploring 4,7-Disubstituted Pyrimido[4,5-d]pyrimidines as Antiviral and Anticancer Agents” (Molecules, 2024).

What was measured:
[1] = system: influenza A/H3N2 (A/HK/7/87); test: Antiviral CPE reduction assay, influenza A/H3N2 in MDCK cells; format: cell-based, influenza A virus; conditions: Influenza A virus, H3N2; MDCK cells; CPE reduction, MTS; mean ± SD of two or three independent experiments; read-out: Antiviral Activity (EC50) Influenza H3N2
HCoV-NL63 = test: Antiviral CPE reduction assay, HCoV-NL63 in Hep3B cells; format: cell-based, human coronavirus NL63; conditions: Human coronavirus NL63, MTS, mean ± SD of two or three independent experiments
[2] = system: NCI-H460 (lung carcinoma); test: MTS proliferation assay, NCI-H460; conditions: Homo sapiens, NCI-H460, 72 h, read-out: Anti-Proliferative Activity (IC50) NCI-H460
[3] = system: K-562 (chronic myeloid leukemia); test: MTS proliferation assay, K-562; conditions: Homo sapiens, K562, 72 h, read-out: Anti-Proliferative Activity (IC50) K-562
in vitro [4] = conditions: African green monkey
[5] = system: influenza B (B/Ned/537/05); test: Antiviral CPE reduction assay, influenza B in MDCK cells; format: cell-based, influenza B virus; conditions: Influenza B virus, MDCK, read-out: Antiviral Activity (EC50) Influenza B
HCoV-229E = test: Antiviral CPE reduction assay, HCoV-229E in HEL299 cells; format: cell-based, human coronavirus 229E; conditions: Human coronavirus 229E, HEL 299, MTS, mean ± SD of two or three independent experiments
[6] = system: yellow fever virus (YFV 17D); test: microbe, parasite or virus in culture; format: cell-based; conditions: Yellow fever virus, Vero C1008, read-out: Antiviral activity (EC50) YFV 17D
LN-229 (glioblastoma) = test: MTS proliferation assay, LN-229; conditions: Homo sapiens, LN-229, 72 h, read-out: Anti-Proliferative Activity (IC50) LN-229
[7] = system: influenza A/H1N1 (A/Ned/378/05); test: Antiviral CPE reduction assay, influenza A/H1N1 in MDCK cells; format: cell-based, influenza A virus; conditions: Influenza A virus, H1N1; MDCK cells; CPE reduction, MTS; mean ± SD of two or three independent experiments; read-out: Antiviral Activity (EC50) Influenza H1N1
[8] = system: Z-138 (non-Hodgkin lymphoma); test: MTS proliferation assay, Z-138; conditions: Homo sapiens, Z-138, 72 h, read-out: Anti-Proliferative Activity (IC50) Z-138
[9] = system: Capan-1 (pancreatic adenocarcinoma); test: MTS proliferation assay, Capan-1; conditions: Homo sapiens, CAPAN-1, 72 h, read-out: Anti-Proliferative Activity (IC50) Capan-1
in vitro [10] = conditions: human
Zika virus (ZikV mr766) = test: Antiviral CPE reduction assay, Zika virus mr766 in VeroE6 cells; format: cell-based; conditions: Zika virus, Vero C1008, MTS, mean ± SD, no unit printed on the supplement page (Table 2 of the same screen is in µM)
[11] = system: DND-41 (acute lymphoblastic leukemia); test: MTS proliferation assay, DND-41; conditions: Homo sapiens, DND41, 72 h, read-out: Anti-Proliferative Activity (IC50) DND-41
in vitro [12] = conditions: human; remark: listed apart in the source
in vitro [13] = conditions: human; remark: listed apart in the source
[14] = system: respiratory syncytial virus A (RSV A Long); test: Antiviral CPE reduction assay, RSV A Long in Hep2 cells; format: cell-based; conditions: human respiratory syncytial virus, HEp-2; Hep2 cells; CPE reduction, MTS; mean ± SD of two or three independent experiments; read-out: Antiviral Activity (EC50) RSV A Long
in vitro [15] = conditions: dog
[16] = system: HL-60 (acute myeloid leukemia); test: MTS proliferation assay, HL-60; conditions: Homo sapiens, HL-60, 72 h, read-out: Anti-Proliferative Activity (IC50) HL-60
[17] = system: herpes simplex virus-1 (HSV-1 KOS); test: Antiviral CPE reduction assay, HSV-1 KOS in HEL299 cells; format: cell-based; conditions: Human alphaherpesvirus 1, HEL 299, MTS, mean ± SD, no unit printed on the supplement page (Table 2 of the same screen is in µM)
HCoV-OC43 = test: Antiviral CPE reduction assay, HCoV-OC43 in HEL299 cells; format: cell-based, human coronavirus OC43; conditions: Betacoronavirus 1, OC43, HEL 299, MTS, mean ± SD of two or three independent experiments
[18] = system: HCT-116 (colorectal carcinoma); test: MTS proliferation assay, HCT-116; conditions: Homo sapiens, HCT-116, 72 h, read-out: Anti-Proliferative Activity (IC50) HCT-116

CCN(CC)CCNc1ncc2c(Nc3cccnc3)ncnc2n1 [Compound 7l, N^2-[2-(diethylamino)ethyl]-N^5-(pyridin-3-yl)pyrimido[4,5-d]pyrimidine-2,5-diamine]
220 to 224 °C: melting point
> 50 µM: EC50 [1] | EC50 (HCoV-NL63) | CC50 (in vitro [4]) | EC50 [5] | EC50 (HCoV-229E) | EC50 [6] | EC50 [7] | CC50 (in vitro [10]) | EC50 (Zika virus (ZikV mr766)) | CC50 (in vitro [12]) | CC50 (in vitro [13]) | EC50 [14] | CC50 (in vitro [15]) | EC50 [17] | EC50 (HCoV-OC43)
> 100 µM: IC50 [2] | IC50 [3] | IC50 (LN-229 (glioblastoma)) | IC50 [8] | IC50 [9] | IC50 [11] | IC50 [16] | IC50 [18]

c1cncc(Nc2ncnc3nc(NC4CC4)ncc23)c1 [Compound 7m, N^2-cyclopropyl-N^5-(pyridin-3-yl)pyrimido[4,5-d]pyrimidine-2,5-diamine]
> 50 µM: EC50 [1] | EC50 (HCoV-NL63) | CC50 (in vitro [4]) | EC50 [5] | EC50 (HCoV-229E) | EC50 [6] | EC50 [7] | CC50 (in vitro [10]) | EC50 (Zika virus (ZikV mr766)) | CC50 (in vitro [12]) | CC50 (in vitro [13]) | EC50 [14] | CC50 (in vitro [15]) | EC50 [17] | EC50 (HCoV-OC43)
> 100 µM: IC50 [2] | IC50 [3] | IC50 (LN-229 (glioblastoma)) | IC50 [8] | IC50 [9] | IC50 [11] | IC50 [16] | IC50 [18]
243 °C: melting point

CN(C)CCNc1ncc2c(Nc3cccc4c3CCC4)ncnc2n1 [Compound 7e, N^5-(2,3-dihydro-1H-inden-4-yl)-N^2-(2-(dimethylamino)ethyl)pyrimido[4,5-d]pyrimidine-2,5-diamine]
180.9 °C: melting point
> 100 µM: IC50 [2] | IC50 [3] | IC50 (LN-229 (glioblastoma)) | IC50 [8] | IC50 [9] | IC50 [11] | IC50 [16] | IC50 [18]
20.6 ± 0.3 µM: EC50 (HCoV-229E)
> 50 µM: EC50 [1] | EC50 (HCoV-NL63) | CC50 (in vitro [4]) | EC50 [5] | EC50 [6] | EC50 [7] | CC50 (in vitro [10]) | EC50 (Zika virus (ZikV mr766)) | CC50 (in vitro [12]) | CC50 (in vitro [13]) | EC50 [14] | CC50 (in vitro [15]) | EC50 [17] | EC50 (HCoV-OC43)

CN(C)CCNc1ncc2c(Nc3cccc4c3CCCC4)ncnc2n1 [Compound 7a, N^2-[2-(Dimethylamino)ethyl]-N^5-(5,6,7,8-tetrahydronaphthalen-1-yl)pyrimido[4,5-d]pyrimidine-2,5-diamine]
176.3 °C: melting point
> 100 µM: IC50 [2] | IC50 (LN-229 (glioblastoma)) | IC50 [9] | IC50 [16] | IC50 [18]
57.9 ± 2 µM: IC50 [11]
27.7 ± 0.6 µM: EC50 (HCoV-OC43)
> 50 µM: EC50 [1] | EC50 (HCoV-NL63) | CC50 (in vitro [4]) | EC50 [5] | EC50 [6] | EC50 [7] | CC50 (in vitro [10]) | EC50 (Zika virus (ZikV mr766)) | CC50 (in vitro [12]) | CC50 (in vitro [13]) | EC50 [14] | CC50 (in vitro [15]) | EC50 [17]
87 ± 1.3 µM: IC50 [3]
15.8 ± 0.9 µM: EC50 (HCoV-229E)
58.9 ± 1.8 µM: IC50 [8]

c1cc2c(c(Nc3ncnc4nc(NC5CC5)ncc34)c1)CCC2 [Compound 7g, N^2-cyclopropyl-N^5-(2,3-dihydro-1H-inden-4-yl)pyrimido[4,5-d]pyrimidine-2,5-diamine]
> 100 µM: IC50 [2] | IC50 [3] | IC50 (LN-229 (glioblastoma)) | IC50 [8] | IC50 [9] | IC50 [11] | IC50 [16] | IC50 [18]
290 °C: melting point
≥ 30.5 µM: EC50 (HCoV-229E)
> 50 µM: EC50 [1] | EC50 (HCoV-NL63) | CC50 (in vitro [4]) | EC50 [5] | EC50 [6] | EC50 [7] | CC50 (in vitro [10]) | EC50 (Zika virus (ZikV mr766)) | CC50 (in vitro [12]) | CC50 (in vitro [13]) | EC50 [14] | CC50 (in vitro [15]) | EC50 [17] | EC50 (HCoV-OC43)
